# Data published in patent US20210198647A1, “Enhancers of Neurolysin Activity” (Texas Tech University System, priority 2018, published 2021).
# Where “and” joins values, the source holds several entries; their conditions need not be identical. Equal values may be shown once. Read-outs that look alike come from different tables or passages of the source. Marks after values point to notes of the source that are not given here. Peptide text beside a SMILES is read from it.
# What was measured:
# [1] = target: T1, rat recombinant neurolysin (Rattus norvegicus, UniProt P42676); test: Enzymatic assay: QFS hydrolysis by rat recombinant neurolysin; format: biochemical; conditions: for Km value decreased by / Vmax increased by: 40 μM modulator; for Vmax: QFS hydrolysis; for activity at 10 µM: read-out: % activity at 10; for activity at 100 µM: read-out: % activity at (100)
# T1 construct: polyhistidine (N); made in house; host or cells: Escherichia coli (pBAD/His vector)
# Description: Rat recombinant neurolysin—N-terminal polyhistidine tagged recombinant rat neurolysin was produced in Escherichia coli using a plasmid construct in pBAD/His vector system (Invitrogen) kindly provided by Dr. David W. Rodgers (University of Kentucky) (32,33). Bacterial culture was carried out in Terrific Broth in 2 L Erlenmeyer flasks using an incubator shaker (1-2400, New Brunswick Scientific). Expression was induced by addition of arabinose (1 mM final concentration), the cells were pelleted 3 h after induction and stored at −80° C. freezer. Bacterial pellets were resuspended and lysed in phosphate buffer (20 mM NaH2PO4, 500 mM NaCl, 0.05% Tween-20, pH 8.0) containing 0.25 mg/ml lysozyme, 1 mM phenylmethylsulfonyl fluoride, 0.05 mg/ml DNAse and 0.02 mg/ml RNase, followed by brief sonication. After centrifugation (40,000×g, 20 min at 4° C.) the supernatant was applied to a Ni-NTA Superflow cartridge (Qiagen), followed by washing and elution of recombinant neurolysin with phosphate buffer containing 25 and 250 mM imidazole, respectively. The eluted protein was further purified by size exclusion chromatography using a TSK gel BioAssist G2SWxl column (Tosoh bioscience) in AKTA Purifier FPLC system (GE Healthcare). […] Specific activity of recombinant neurolysin was determined by an enzymatic assay described below.
# All assays were initiated by addition of QFS (100 μl assay volume in 96-well plates), and each experimental sample was present in duplicate.
# In all experiments, test compounds were incubated with neurolysin for 10 min at 37° C. before addition of the substrate to start the reaction. All test compounds were dissolved in DMSO at 10 to 50 mM stock concentrations.
# Statistical Analyses—statistical analyses and curve fitting were conducted with GraphPad Prism 6.0 software. For each enzymatic reaction, slope of the line which represents the initial velocity (Vo) for the reaction progress curve was calculated using the liner regression model of the software (Vo=Slope=Δ fluorescent intensity of the reaction product/Δ time). EC50 values for the modulators were calculated by fitting initial velocity values for hydrolysis of QFS by neurolysin in the presence of varying concentrations of a modulator into a nonlinear regression model for the three-parameter log(stimulator) vs. response equation [Y=Bottom+(Top−Bottom)/(1+10^((Log EC50−X)))].
# [2] = target: T2, human recombinant neurolysin (Homo sapiens, UniProt Q9BYT8); test: Enzymatic assay: QFS hydrolysis by human recombinant neurolysin; format: biochemical
# T2 construct: purchased R & D systems 3814-ZN
# Description: Enzymatic assays—activity of neurolysin was measured in a continuous assay by documenting the increase in fluorescence occurring upon cleavage of a quenched fluorescent substrate (QFS) Mca-Pro-Leu-Gly-Pro-D-Lys(DNP)-OH (Bachem) (25,36). […] All assays were initiated by addition of QFS (100 μl assay volume in 96-well plates), and each experimental sample was present in duplicate.
# Screening of test compounds—primary screening of top-ranked 40 compounds (received from NCI DTP) was carried out at 10 and 100 μM final assay concentrations. […] In all experiments, test compounds were incubated with neurolysin for 10 min at 37° C. before addition of the substrate to start the reaction. […]
# mouse brain neurolysin = target: T3, mouse brain neurolysin (Mus musculus, UniProt Q91YP2); test: Enzymatic assay: QFS hydrolysis by mouse brain-purified neurolysin; format: biochemical
# T3 construct: P10 mouse forebrains were used for purification of native neurolysin; from tissue; host or cells: P10 mouse forebrain, soluble fraction, size-exclusion fraction
# Description: In brief, forebrains were homogenized in hypotonic buffer (20 mM NaPO4, pH 7.2) followed by gentle sonication and centrifugation (30 min at 48,000×g at 4° C.). The resulting supernatant was filtered through a 100 kDa cut-off centrifugal filtering unit and concentrated in a 30 kDa cut-off centrifugal filtering unit (Amicon Ultra; Millipore). Neurolysin was semi-purified from the concentrate by size exclusion chromatography using a Superdex 200 Increase 10/300 GL column (GE Healthcare) in AKTA Purifier FPLC system (GE Healthcare). Elution of neurolysin was tracked by the enzymatic assay described below, and the fraction with the highest neurolysin activity was directly used for the experiments.
# Enzymatic assays—activity of neurolysin was measured in a continuous assay by documenting the increase in fluorescence occurring upon cleavage of a quenched fluorescent substrate (QFS) Mca-Pro-Leu-Gly-Pro-D-Lys(DNP)-OH (Bachem) (25,36). […]
# Statistical Analyses—statistical analyses and curve fitting were conducted with GraphPad Prism 6.0 software. For each enzymatic reaction, slope of the line which represents the initial velocity (Vo) for the reaction progress curve was calculated using the liner regression model of the software (Vo=Slope=Δ fluorescent intensity of the reaction product/Δ time). […]
# [3] = target: T4, angiotensin converting enzyme (ACE) (Homo sapiens, UniProt P12821); test: Peptidase selectivity: quenched fluorescent substrate hydrolysis by ACE; format: biochemical; conditions: for inhibition at 300 µM: 300 μM compound, read-out: inhibited activity of ACE by; for effect on activity of ACE (in words): concentration-response up to 300 μM
# T4 construct: purchased R & D systems 929-ZN
# [4] = target: T5, angiotensin converting enzyme 2 (ACE2) (Homo sapiens, UniProt Q9BYF1); test: Peptidase selectivity: quenched fluorescent substrate hydrolysis by ACE2; format: biochemical; conditions: for inhibition at 300 µM: 300 μM compound, read-out: inhibited activity of ACE2 by; for effect on activity of ACE2 (in words): concentration-response up to 300 μM
# T5 construct: purchased R & D systems 933-ZN
# neprilysin (NEP) = target: T6, neprilysin (NEP) (Homo sapiens, UniProt P08473); test: Peptidase selectivity: quenched fluorescent substrate hydrolysis by NEP; format: biochemical; conditions: 300 μM compound; read-out: inhibited activity of NEP by
# T6 construct: purchased R & D systems 1182-ZNC
# [5] = target: thimet oligopeptidase (TOP) (Homo sapiens, UniProt P52888); test: Peptidase selectivity: quenched fluorescent substrate hydrolysis by TOP; conditions: for inhibition at 300 µM: read-out: inhibited activity of TOP by; for effect on activity of TOP (in words): concentration-response up to 300 μM
# Description: Activity of recombinant human TOP was assessed in the same way as for neurolysin, except that the assay was carried out in the presence of 0.1 mM dithiothreitol (37).
# [6] = Plasma and brain protein binding, rapid equilibrium dialysis (RED); format: in vitro ADME, mouse; conditions: for fu in Plasma: 500 ng/mL
# Description: Plasma and Brain Protein Binding: The rapid equilibrium dialysis (RED) plate and single-use inserts with a membrane MWCO of 8 kDa and sealing tapes for 96-well plates were purchased from (Pierce Biotechnology, Thermo Fisher Scientific, Waltham, Mass.). Test compounds were dissolved in dimethyl sulfoxide and then diluted to 10 μg/mL with water for binding studies. The stock solutions (10 μg/mL) were added to mouse brain homogenates or plasma. The final concentration of the compounds for the equilibrium dialysis experiment was 500 ng/mL. The RED device was assembled according to the manufacturer's instructions. A 200 μL aliquot of plasma or brain homogenate spiked with 500 ng/mL of selected compound was added to the sample chamber of insert (donor) and 400 μL of DPBS was added to the buffer chamber of the dialysis membrane (receiver). Then, the base plate was covered with a sealing tape and was incubated at 37° C. on an orbital shaker at 250 rpm for 4 hours to achieve equilibrium. Compounds were evaluated in triplicate for each experiment. At the end of incubation, equal volumes from both donor and receiver chambers were taken and placed in separate microcentrifuge for content analysis using LC-MS/MS.
# in vitro = conditions: mouse
# Neurolysin (Nln) = target: T7, Neurolysin (Nln) (Rattus norvegicus, UniProt P42676); test: Nln activation in isolated enzyme assay (A50, Amax); format: biochemical; conditions: 95% CI in parentheses; for Amax (maximum % activation achieved): 100% = normal enzyme turnover
# T7 construct: polyhistidine (N); made in house; host or cells: Escherichia coli (pBAD/His vector), if the rat enzyme of b61 was used
# [7] = system: co-culture of primary mouse astrocytes and immortalized mouse endothelial cells (bEnd3); test: In vitro BBB permeability, apical to basolateral transport; format: in vitro ADME; conditions: 10 μg/mL, 37° C.
# Description: The permeability coefficient (Pe) was calculated from the cleared volume of each compound versus time. Values represent the mean±SD of three measurements.
# Mouse primary astrocytes were isolated from the cerebral cortices of one day old pups (CD-1 mice, Charles Rivers Laboratory) following a literature method.^36 After extracting the brain, cortices were separated, minced and placed in Hank's balanced salt solution (HBSS) without calcium and magnesium, supplemented with gentamycin (10 μg/m). […] The cell suspensions were seeded into a T75 flask and the medium was changed every 3 days for 10-14 days or until reaching confluency.
# For bEnd3 and astrocyte co-culture, the Transwell filters ([…] pore size, 12-well; Corning, Lowell, Mass.) were used. First, the Transwell filter was inverted and astrocytes at a density of 150,000 cells/filter were seeded onto the abluminal side of the filter and allowed to adhere for 4 hours. Then the Transwell filter was inverted back and the cells were grown for 2 days in astrocyte medium. At the end of 48 hours, bEnd3 cells at a density of 50,000 cells/filter were seeded onto the upper/luminal side of the filter and the co-culture of astrocytes and bEnd3 cells were grown for an additional 8 days. The medium for both compartments were changed every other day according to literature proceedures.^37
# The apparent permeability coefficient (Pe, in cm/min) was calculated according to the cleared volume of each time point, as previously described.^38,39
# Permeability measurement for each compound was run for 120 minutes. The media was removed and transwells were rinsed and incubated with HBSS buffer at 37° C. for 30 minutes. […] Concentration of compounds was determined by LC-MS/MS. Since the blank Transwell insert itself (without cells) provides resistance to the passage of buffer and compound from the donor to receiver chamber, the permeability of each compound was also measured in a blank insert and the final permeability coefficient results were calculated by considering the permeability of each compound in a blank insert.
# [8] = In vitro metabolic stability in mouse plasma and brain homogenate; conditions: 10% mouse brain homogenate; 500 ng/mL; 37° C.
# [9] = QFS 15 μM, absence of dynorphin A (1-13)
# [10] = QFS 15 μM, presence of dynorphin A (1-13) 1 μM
# [11] = QFS 25 μM, neurolysin 0.3 nM, 100% = no compound
# Sequence of thimet oligopeptidase (TOP) (P52888 whole entry): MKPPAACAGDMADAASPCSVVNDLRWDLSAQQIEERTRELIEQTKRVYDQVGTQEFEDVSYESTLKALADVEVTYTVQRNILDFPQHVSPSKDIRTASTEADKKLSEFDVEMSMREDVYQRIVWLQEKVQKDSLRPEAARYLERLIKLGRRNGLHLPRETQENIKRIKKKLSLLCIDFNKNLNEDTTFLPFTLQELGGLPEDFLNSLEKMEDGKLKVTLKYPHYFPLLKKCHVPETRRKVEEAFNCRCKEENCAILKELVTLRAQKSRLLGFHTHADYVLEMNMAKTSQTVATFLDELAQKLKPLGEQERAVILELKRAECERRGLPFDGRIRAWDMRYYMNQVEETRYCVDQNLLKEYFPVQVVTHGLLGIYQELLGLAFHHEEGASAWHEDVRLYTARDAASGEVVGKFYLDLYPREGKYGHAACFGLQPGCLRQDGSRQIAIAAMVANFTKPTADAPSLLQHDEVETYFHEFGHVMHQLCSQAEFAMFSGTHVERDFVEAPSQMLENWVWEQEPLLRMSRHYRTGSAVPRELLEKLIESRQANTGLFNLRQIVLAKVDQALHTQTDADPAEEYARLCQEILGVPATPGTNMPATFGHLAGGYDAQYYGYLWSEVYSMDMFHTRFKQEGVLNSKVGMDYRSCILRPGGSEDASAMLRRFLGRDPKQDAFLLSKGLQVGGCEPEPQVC
# T4 sequence (P12821 30-1306): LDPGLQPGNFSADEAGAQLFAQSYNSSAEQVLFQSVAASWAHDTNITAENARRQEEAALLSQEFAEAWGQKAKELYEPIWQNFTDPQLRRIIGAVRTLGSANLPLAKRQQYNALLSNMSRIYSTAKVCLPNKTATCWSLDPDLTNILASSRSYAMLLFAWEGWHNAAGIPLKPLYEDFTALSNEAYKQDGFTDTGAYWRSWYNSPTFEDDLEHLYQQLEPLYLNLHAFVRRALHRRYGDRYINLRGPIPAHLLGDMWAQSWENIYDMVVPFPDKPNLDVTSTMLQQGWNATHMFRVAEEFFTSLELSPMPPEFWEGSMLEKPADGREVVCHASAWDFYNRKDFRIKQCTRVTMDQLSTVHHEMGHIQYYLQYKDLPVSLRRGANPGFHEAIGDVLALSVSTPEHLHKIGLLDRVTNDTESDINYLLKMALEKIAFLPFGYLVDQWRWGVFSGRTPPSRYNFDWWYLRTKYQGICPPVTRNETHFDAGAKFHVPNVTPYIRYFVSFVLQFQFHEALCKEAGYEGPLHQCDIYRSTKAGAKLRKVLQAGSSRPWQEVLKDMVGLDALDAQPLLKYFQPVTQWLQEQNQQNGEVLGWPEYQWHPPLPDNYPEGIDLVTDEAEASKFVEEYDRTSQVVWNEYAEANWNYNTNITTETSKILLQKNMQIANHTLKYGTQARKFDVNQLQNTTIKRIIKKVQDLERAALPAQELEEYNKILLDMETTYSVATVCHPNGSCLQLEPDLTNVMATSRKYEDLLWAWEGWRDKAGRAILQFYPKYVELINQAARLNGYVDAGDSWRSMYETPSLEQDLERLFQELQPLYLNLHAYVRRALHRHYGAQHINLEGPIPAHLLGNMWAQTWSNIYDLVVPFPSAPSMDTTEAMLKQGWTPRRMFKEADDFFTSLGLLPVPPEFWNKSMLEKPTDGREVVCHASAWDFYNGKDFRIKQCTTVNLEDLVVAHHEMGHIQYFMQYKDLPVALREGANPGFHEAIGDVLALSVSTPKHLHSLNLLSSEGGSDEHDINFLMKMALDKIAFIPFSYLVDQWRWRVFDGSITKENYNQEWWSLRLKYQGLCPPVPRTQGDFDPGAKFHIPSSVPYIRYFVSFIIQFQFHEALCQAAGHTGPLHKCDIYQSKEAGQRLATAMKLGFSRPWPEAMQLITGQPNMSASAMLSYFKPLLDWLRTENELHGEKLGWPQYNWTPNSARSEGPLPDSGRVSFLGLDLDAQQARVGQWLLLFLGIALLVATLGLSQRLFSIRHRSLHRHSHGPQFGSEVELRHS
# T5 sequence (Q9BYF1 18-805): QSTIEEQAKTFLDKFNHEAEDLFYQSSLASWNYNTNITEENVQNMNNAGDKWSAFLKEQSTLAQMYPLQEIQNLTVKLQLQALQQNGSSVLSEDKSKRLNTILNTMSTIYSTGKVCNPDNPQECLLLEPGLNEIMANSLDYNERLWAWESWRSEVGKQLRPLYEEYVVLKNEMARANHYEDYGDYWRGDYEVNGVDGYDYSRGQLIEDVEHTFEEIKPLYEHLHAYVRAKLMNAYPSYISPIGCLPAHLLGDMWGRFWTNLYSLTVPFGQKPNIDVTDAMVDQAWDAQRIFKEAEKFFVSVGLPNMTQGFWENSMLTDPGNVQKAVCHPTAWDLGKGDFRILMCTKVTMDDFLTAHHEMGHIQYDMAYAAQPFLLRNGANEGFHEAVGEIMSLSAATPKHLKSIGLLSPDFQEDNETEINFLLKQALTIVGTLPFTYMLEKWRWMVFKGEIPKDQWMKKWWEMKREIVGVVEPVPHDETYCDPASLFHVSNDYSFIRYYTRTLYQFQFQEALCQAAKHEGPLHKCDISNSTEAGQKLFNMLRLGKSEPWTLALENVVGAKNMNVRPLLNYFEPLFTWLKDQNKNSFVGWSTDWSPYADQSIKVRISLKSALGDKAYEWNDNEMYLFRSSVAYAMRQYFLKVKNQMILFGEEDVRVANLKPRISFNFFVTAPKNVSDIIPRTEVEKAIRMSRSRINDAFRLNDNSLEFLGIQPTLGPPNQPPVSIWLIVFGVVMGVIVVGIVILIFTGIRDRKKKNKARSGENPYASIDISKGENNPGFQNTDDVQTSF
# T1 sequence (P42676 38-704): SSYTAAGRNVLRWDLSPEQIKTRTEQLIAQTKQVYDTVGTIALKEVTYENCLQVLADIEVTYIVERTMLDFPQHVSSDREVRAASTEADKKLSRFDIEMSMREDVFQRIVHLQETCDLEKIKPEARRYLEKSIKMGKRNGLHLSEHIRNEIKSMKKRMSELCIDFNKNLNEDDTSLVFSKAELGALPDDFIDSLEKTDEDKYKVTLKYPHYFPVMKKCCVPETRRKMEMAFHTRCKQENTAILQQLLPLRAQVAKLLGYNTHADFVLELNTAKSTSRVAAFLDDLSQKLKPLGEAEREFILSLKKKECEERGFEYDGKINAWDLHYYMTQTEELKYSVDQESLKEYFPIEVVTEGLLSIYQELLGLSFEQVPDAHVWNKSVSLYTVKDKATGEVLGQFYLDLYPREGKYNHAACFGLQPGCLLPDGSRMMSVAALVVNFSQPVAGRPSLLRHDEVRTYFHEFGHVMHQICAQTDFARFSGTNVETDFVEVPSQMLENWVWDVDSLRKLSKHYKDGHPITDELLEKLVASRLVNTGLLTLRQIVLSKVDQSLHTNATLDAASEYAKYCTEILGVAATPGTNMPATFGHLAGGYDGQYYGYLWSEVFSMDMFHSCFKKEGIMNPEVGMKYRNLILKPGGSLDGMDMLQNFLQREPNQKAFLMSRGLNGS
# T7 sequence (P42676 38-704): as above
# T3 sequence (Q91YP2 38-704): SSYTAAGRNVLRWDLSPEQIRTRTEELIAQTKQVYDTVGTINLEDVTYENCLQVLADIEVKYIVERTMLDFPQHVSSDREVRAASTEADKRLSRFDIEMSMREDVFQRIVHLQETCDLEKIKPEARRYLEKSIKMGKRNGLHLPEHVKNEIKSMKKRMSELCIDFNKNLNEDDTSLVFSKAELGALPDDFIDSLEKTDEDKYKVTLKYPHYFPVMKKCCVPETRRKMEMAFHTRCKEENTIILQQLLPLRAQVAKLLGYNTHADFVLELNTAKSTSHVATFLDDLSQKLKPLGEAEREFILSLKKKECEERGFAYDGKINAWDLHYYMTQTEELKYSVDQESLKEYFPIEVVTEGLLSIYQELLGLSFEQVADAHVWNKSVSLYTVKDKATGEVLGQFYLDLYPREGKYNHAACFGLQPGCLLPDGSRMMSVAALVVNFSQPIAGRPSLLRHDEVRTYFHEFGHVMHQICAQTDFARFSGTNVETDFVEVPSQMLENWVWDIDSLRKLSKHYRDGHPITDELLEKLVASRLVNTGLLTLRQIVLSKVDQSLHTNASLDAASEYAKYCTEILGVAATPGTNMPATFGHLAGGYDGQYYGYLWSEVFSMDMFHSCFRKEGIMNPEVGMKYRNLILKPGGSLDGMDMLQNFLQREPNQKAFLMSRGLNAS
SMILES,Km value decreased by [1],Vmax increased by [1],"Emax [1, 9]","Emax [1, 10]","Emax [1, 11]",Vmax ([1]; rNln + 40 μM modulator),Vmax ([1]; rNln + 100 μM modulator),activity at 10 µM [1],activity at 100 µM [1],Emax [2],Emax (mouse brain neurolysin),inhibition at 300 µM [3],inhibition at 300 µM [4],inhibition at 300 µM (neprilysin (NEP)),inhibition at 300 µM [5],fu in Plasma ([6]; mouse plasma),effect on activity of ACE (in words) [3],effect on activity of ACE2 (in words) [4],Amax (maximum % activation achieved) (Neurolysin (Nln)),permeability coefficient (Pe) [7],also measured
"NC(Cc1c[nH]cn1)C(=O)NC(Cc1c[nH]cn1)C(=O)O (mixture of isomers) [NlnA#2, D,L-histidyl-D,L-histidine]",~42.4%,~16.5%,255%,198%,203%,112.5* FLU/ng protein per min,148.2*** FLU/ng protein per min,122%,206%,214%,258%,12.2 ± 1.8%,10.9 ± 2.9%,1.6 ± 2%,15.6 ± 2.6%,,,,,,
"N[C@@H](Cc1c[nH]cn1)C(=O)N[C@@H](Cc1c[nH]c2ccccc12)C(=O)O [Compound 4, Histidine-tryptophan]",,,,,,,,,,,,,,,,0.93 ± 0.13,,,,,half-life at 500 ng/mL (in vitro; plasma): > 5 h
"N[C@@H](Cc1c[nH]cn1)C(=O)NCCc1c[nH]c2ccccc12 [Compound 9d, (S)—N-(2-(1H-indol-3-yl)ethyl)-2-amino-3-(1H-imidazol-4-yl)propanamide]",,,,,,,,,,,,,,,,0.63 ± 0.076,show inhibition of ACE at high concentration,showed inhibition of ACE2 at high concentrations,259 (240.7 to 281) %,1.07±0.12×10^−3 cm/min,EC50 (Neurolysin (Nln); A50 (concentration required to activate Nln by 50%)): 6.1 µM; half-life at 500 ng/mL (in vitro; mouse plasma): > 16.7 h; t1/2 Mouse Brain [8]: 1.1 h and 1.09 ± 0.07 h; effect on activity of TOP (in words) [5]: only exhibited inhibition at concentrations approaching 300 μM
"N[C@@H](Cc1c[nH]cn1)C(=O)NCc1cccc2ccccc12 [Compound 10c, (S)-2-amino-3-(1H-imidazol-4-yl)-N-(naphthalen-1-ylmethyl)propanamide]",,,,,,,,,,,,,,,,,no inhibition at the maximum concentration tested,no inhibition up to 300 μM,264 (256.3 to 272.6) %,1.09±0.09×10^−3 cm/min,"fraction unbound at 4 h, 500 ng/mL ([6]; mouse brain homogenate, read-out: fu in Brain): 0.052 ± 0.003; fraction unbound at 4 h, 500 ng/mL ([6]; mouse plasma, read-out: fu in Plasma): 0.45 ± 0.013; t1/2 Mouse Brain [8]: 1.33 h and 1.34 ± 0.033 h; effect on activity of TOP (in words) [5]: No appreciable inhibition"
"N[C@@H](Cc1c[nH]cn1)C(=O)Nc1cccc2cccnc12 [Compound 11a, (S)-2-amino-3-(1H-imidazol-4-yl)-N-(quinolin-8-yl)propanamide]",,,,,,,,,,,,,,,,,show inhibition of ACE at high concentration,showed inhibition of ACE2 at high concentrations,252.4 (231.4 to 274.9) %,1.14±0.02×10^−3 cm/min,
"N[C@@H](Cc1c[nH]cn1)C(=O)N[C@@H](Cc1ccc(O)cc1)C(=O)O [NlnA#1, L-histidyl-L-tyrosine] (H-His-Tyr-OH)",~43%,~29%,292%,238%,235%,124.2*** FLU/ng protein per min,164.8*** FLU/ng protein per min,121%,226%,204%,190%,22.6 ± 2.5%,13.4 ± 2.9%,2.9 ± 4.7%,25.9 ± 0.7%,,,,,,
